Values quoted from earlier work, collected in article PMC2099433, “The binding site for neohesperidin dihydrochalcone at the human sweet taste receptor” (BMC Structural Biology, 2007).

Legend:
sweet taste [1] = tested on: sweet taste; parameters: method as in PMID 831282, PMID 14403185; conditions: cited from earlier work
sweet taste [2] = tested on: sweet taste; parameters: method as in PMID 10480680; conditions: humans; cited from earlier work

Row | Compound | taste (sweet taste [1]) | inhibition of the sweet taste of NHDC (sweet taste [2])
1 | COc1ccc(CCC(=O)c2c(O)cc(O)cc2O)cc1O [hesperitin dihydrochalcone] | tastes sweet | 
2 | COc1ccc(OC(C)C(=O)O)cc1 (centres unmarked) [lactisole] |  | did not inhibit the sweet taste of NHDC
